Source: US20200345725A1, “Methods and Compositions for Treating Cancer” (Omeros Corporation, priority 2019, published 2020)
Marks after values point to notes of the source that are not given here.

Experiments:
human PBMCs = assay: Th1 cytokines in supernatants of stimulated human PBMC, GPR174 inhibitor with adenosine pathway inhibitors (Examples 15, 18-22); format: cell-based; details: for IFN-γ, ratio relative to vehicle control (MRS) / IL-2, ratio relative to vehicle control (MRS column) / TNF, ratio relative to vehicle control (MRS column): MRS-1754 1 μM added to the agent(s) of the label, label MRS = MRS alone; for IFN-γ, ratio relative to vehicle control (Veh column) / IL-2, ratio relative to vehicle control (Veh column) / TNF, ratio relative to vehicle control (Veh column): donor 6, no MRS, Cmpd 10 1, ZM 0.1, PBF 0.1, SCH 0.2 μM, ADA 0.75 μg/mL
How it was run: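 Human donor PBMCs (1×10^6 cells/well) were stimulated with 1 µg/mL anti-CD3 (UCHT1) plus 0.1 µg/mL anti-CD28 (CD28.2) for 24 h with test agents. IFN-γ, IL-2, TNF and GM-CSF in supernatants were measured by ELISA, Legendplex or MSD. Fold changes were compared by one-way ANOVA with Tukey correction.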

mouse splenocytes = assay: IL-2 levels in supernatants of cultured mouse splenocytes (WT or GPR174-KO) stimulated with anti-CD3 and anti-CD28, MSD platform; format: cell-based; details: WT splenocytes, no NECA, 2 days; compound 10 1 μM, ZM-241385 0.1 μM; FIG. 68A
Procedure: To make single cell suspensions from mouse splenocytes, spleens were cut into 1-2 mm^3 pieces with a razor blade and incubated at 37° C. with 10 μg/mL DNase and 1 mg/mL Collagenase D with agitation for 90 min. Spleen fragments and cells were then pressed through a nylon screen, and the resulting cell suspension was washed. In 96-well flat-bottom plates, splenocytes were cultured in quadruplicate with the following conditions for 2 days, after which supernatants were tested for cytokine levels with the MSD platform.
Anti-CD3 (clone 2C11; 0.1 μg/mL)
GPR174 inhibitor (compound 10, 1 μM or 0.3 μM, or DMSO vehicle control)
GPR174 inhibitor (compound 6, 0.3 μM, or DMSO vehicle control)
Adenosine receptor agonist (NECA, 0.1 μM)

[1] = donor 3, PBF-509 0.2 μM, alone (label PBF) or with Cmpd 10 1 μM (label Cmpd 10)
[2] = donor 3, PBF-509 0.2 μM, alone (label PBF) or with Cmpd 10 1 μM (label Cmpd 10), listed as Cmpd 10
[3] = donor 3, ZM-241385 0.2 μM, alone (label ZM) or with Cmpd 10 1 μM (label Cmpd 10)
[4] = donor 3, ZM-241385 0.2 μM, alone (label ZM) or with Cmpd 10 1 μM (label Cmpd 10), listed as Cmpd 10
[5] = donor 7, high and low concentrations, ZM 0.1 μM
[6] = donor 7, no ZM, 0.3 μM (compound 20: 3 μM)
[7] = donor 7, no ZM, 1 μM (compound 20: 10 μM)
[8] = donor 7, with ZM-241385 0.1 μM, 0.3 μM (compound 20: 3 μM)
[9] = donor 7, with ZM-241385 0.1 μM, 1 μM (compound 20: 10 μM), label ZM = ZM alone

## CC1CCN(c2cc(N3CCN(S(=O)(=O)c4ccccc4)CC3)c([N+](=O)[O-])cc2F)CC1 [compound 10]
Human PBMCs; donor 3, Cmpd 10 1 μM alone
  IL-2 fold-change relative to vehicle control: 1.1 fold
  TNF fold-change relative to vehicle control: 1.5 fold
Human PBMCs; donor 3, Cmpd 10 1 μM alone, listed as Cmpd 10
  TNF fold-change relative to vehicle control: 1.5* fold
Human PBMCs; donor 3
  IFN-γ, ratio relative to vehicle control (MRS): 2.2* fold
  IL-2, ratio relative to vehicle control (MRS column): 4.3 fold
  TNF, ratio relative to vehicle control (MRS column): 4.6* fold
Human PBMCs; donor 3, listed as Cmpd 10
  IL-2, ratio relative to vehicle control (MRS column): 4.3* fold
Human PBMCs; [1]
  IFN-γ fold-change relative to vehicle control: 1.8 fold
  IL-2 fold-change relative to vehicle control: 1.6 fold
  TNF fold-change relative to vehicle control: 2.9 fold
Human PBMCs; [2]
  IFN-γ fold-change relative to vehicle control: 1.8* fold
  IL-2 fold-change relative to vehicle control: 1.6* fold
  TNF fold-change relative to vehicle control: 2.9* fold
Human PBMCs; [3]
  IFN-γ fold-change relative to vehicle control: 2.5 fold
  IL-2 fold-change relative to vehicle control: 2.3 fold
  TNF fold-change relative to vehicle control: 4.6 fold
Human PBMCs; [4]
  IFN-γ fold-change relative to vehicle control: 2.5* fold
  IL-2 fold-change relative to vehicle control: 2.3* fold
  TNF fold-change relative to vehicle control: 4.6* fold
Human PBMCs; donor 6
  IFN-γ, MRS/Veh: ratio in the presence vs. the absence of MRS-1754: 1.1
  IL-2, MRS/Veh: ratio in the presence vs. the absence of MRS-1754: 1.4*
  TNF, MRS/Veh: ratio in the presence vs. the absence of MRS-1754: 1.4*
  IFN-γ, ratio relative to vehicle control (MRS): 1.3* fold
  IL-2, ratio relative to vehicle control (MRS column): 1.4 fold
  TNF, ratio relative to vehicle control (MRS column): 2.1 fold
Human PBMCs
  IFN-γ, ratio relative to vehicle control (Veh column): did not significantly increase
  IL-2, ratio relative to vehicle control (Veh column): 1.7 fold
  TNF, ratio relative to vehicle control (Veh column): 1.4 fold
Human PBMCs; listed as Cmpd 10
  IFN-γ, ratio relative to vehicle control (Veh column): 1.2 fold
  IL-2, ratio relative to vehicle control (Veh column): 1.7* fold
  TNF, ratio relative to vehicle control (Veh column): 1.4* fold
Human PBMCs; donor 6, listed as Cmpd 10
  IL-2, ratio relative to vehicle control (MRS column): 2.3* fold
  TNF, ratio relative to vehicle control (MRS column): 2.1* fold
Human PBMCs; [5]
  synergy with ZM on GM-CSF (greater than the sum of the increases with each inhibitor alone): synergized with ZM
  synergy with ZM on IFN-γ (greater than the sum of the increases with each inhibitor alone): synergized with ZM
  synergy with ZM on IL-2 (greater than the sum of the increases with each inhibitor alone): synergized with ZM
  synergy with ZM on TNF (greater than the sum of the increases with each inhibitor alone): synergized with ZM
Human PBMCs; [6]
  GM-CSF, ratio relative to vehicle control: 3.6*
  IFN-γ, ratio relative to vehicle control: 2.1*
  IL-2, ratio relative to vehicle control: 1.7*
  TNF, ratio relative to vehicle control: 2.2*
Human PBMCs; [7]
  GM-CSF, ratio relative to vehicle control: 3.1*
  IFN-γ, ratio relative to vehicle control: 2.2*
  IL-2, ratio relative to vehicle control: 1.6*
  TNF, ratio relative to vehicle control: 2.2*
Human PBMCs; [8]
  GM-CSF, ratio relative to vehicle control: 6.2*
  IFN-γ, ratio relative to vehicle control: 3.7*
  IL-2, ratio relative to vehicle control: 2.0*
  TNF, ratio relative to vehicle control: 3.6*
Human PBMCs; [9]
  GM-CSF, ratio relative to vehicle control: 5.9*
  IFN-γ, ratio relative to vehicle control: 3.7*
  IL-2, ratio relative to vehicle control: 2.2*
  TNF, ratio relative to vehicle control: 3.8*
Mouse splenocytes
  increase of IL-2 levels: greater than 4 fold
